Reference: ChEMBL document CHEMBL3390835, “New insight into the mode of action of vancomycin dimers in bacterial cell wall synthesis” (Medchemcomm, 2011)
Converted amounts (≈) assume the structure as drawn. The source made the active and inactive calls. The rule behind the calls is not given here.

Legend:
Staphylococcus aureus [1] = experiment: Antibacterial activity against vancomycin-susceptible Staphylococcus aureus RN4220; format: functional
Enterococcus faecium [2] = experiment: Antibacterial activity against vancomycin A-resistant Enterococcus faecium SR7940; format: functional
Enterococcus faecium [3] = experiment: Antibacterial activity against vancomycin B-resistant Enterococcus faecium SR23598; format: functional
Staphylococcus aureus [4] = experiment: Inhibition of cell wall synthesis in vancomycin-susceptible Staphylococcus aureus assessed as reduction of lipid intermediate synthesis using UDP-Mur-NAc-pentapeptide (L-Ala-gamma-D-Glu-L-Lys-D-Ala-D-Ala), UDPGlcNAc and [14C] glycine as precursors; format: functional, organism-based
Staphylococcus aureus [5] = experiment: Inhibition of cell wall synthesis in vancomycin-susceptible Staphylococcus aureus assessed as reduction of peptidoglycan synthesis using UDP-Mur-NAc-pentapeptide (L-Ala-gamma-D-Glu-L-Lys-D-Ala-D-Ala), UDPGlcNAc and [14C] glycine as precursors; format: functional, organism-based
Staphylococcus aureus [6] = experiment: Inhibition of cell wall synthesis in vancomycin-resistant Staphylococcus aureus assessed as reduction of lipid intermediate synthesis using UDP-Mur-NAc-pentapeptide (L-Ala-gamma-D-Glu-L-Lys-D-Ala-D-Lactate), UDPGlcNAc and [14C] glycine as precursors; format: functional, organism-based
Staphylococcus aureus [7] = experiment: Inhibition of cell wall synthesis in vancomycin-resistant Staphylococcus aureus assessed as reduction of peptidoglycan synthesis using UDP-Mur-NAc-pentapeptide (L-Ala-gamma-D-Glu-L-Lys-D-Ala-D-Lactate), UDPGlcNAc and [14C] glycine as precursors; format: functional, organism-based
Enterococcus faecium [8] = experiment: Inhibition of protein synthesis in vancomycin B-resistant Enterococcus faecium SRM1101 assessed as [14C]leucine incorporation measured after 15 mins cultivation; format: functional, organism-based
Enterococcus faecium [9] = experiment: Inhibition of DNA synthesis in vancomycin B-resistant Enterococcus faecium SRM1101 assessed as [14C]thymidine incorporation measured after 15 mins cultivation; format: functional, organism-based
Enterococcus faecium [10] = experiment: Inhibition of RNA synthesis in vancomycin B-resistant Enterococcus faecium SRM1101 assessed as [3H]uracil incorporation measured after 15 mins cultivation; format: functional, organism-based
Enterococcus faecium [11] = experiment: Inhibition of fatty acid synthesis in vancomycin B-resistant Enterococcus faecium SRM1101 assessed as [14C]acetic acid incorporation measured after 15 mins cultivation; format: functional, organism-based
Enterococcus faecium [12] = experiment: Inhibition of peptidoglycan synthesis in vancomycin B-resistant Enterococcus faecium SRM1101 assessed as [3H]N-acetyl-D-glucosamine incorporation measured after 15 mins cultivation; format: functional, organism-based

SMILES | MIC (Staphylococcus aureus [1]) [µg/mL] | MIC (Enterococcus faecium [2]) [µg/mL] | MIC (Enterococcus faecium [3]) [µg/mL] | IC50 (Staphylococcus aureus [4]) [µg/mL] | IC50 (Staphylococcus aureus [5]) [µg/mL] | IC50 (Staphylococcus aureus [6]) [µg/mL] | IC50 (Staphylococcus aureus [7]) [µg/mL] | inhibition (Enterococcus faecium [8]) | inhibition (Enterococcus faecium [9]) | inhibition (Enterococcus faecium [10]) | inhibition (Enterococcus faecium [11]) | inhibition (Enterococcus faecium [12])
CN[C@H](CC(C)C)C(=O)N[C@H]1C(=O)N[C@@H](CC(N)=O)C(=O)N[C@H]2C(=O)N[C@H]3C(=O)N[C@H](C(=O)N[C@H](C(=O)NCc4c5oc6c(CNC(=O)[C@H]7NC(=O)[C@H]8NC(=O)[C@H](NC(=O)[C@@H]9NC(=O)[C@H](CC(N)=O)NC(=O)[C@H](NC(=O)[C@@H](CC(C)C)NC)[C@H](O)c%10ccc(c(Cl)c%10)Oc%10cc9cc(c%10O[C@@H]9O[C@H](CO)[C@@H](O)[C@H](O)[C@H]9O[C@H]9C[C@](C)(N)[C@H](O)[C@H](C)O9)Oc9ccc(cc9Cl)[C@H]8O)c8ccc(O)c(c8)-c8c(O)cc(O)cc87)cccc6nc-5cc(N)c4=O)c4cc(O)cc(O)c4-c4cc3ccc4O)[C@H](O)c3ccc(c(Cl)c3)Oc3cc2cc(c3O[C@@H]2O[C@H](CO)[C@@H](O)[C@H](O)[C@H]2O[C@H]2C[C@](C)(N)[C@H](O)[C@H](C)O2)Oc2ccc(cc2Cl)[C@H]1O | 16 (≈ 5.11 µM) | 4 (≈ 1.28 µM) | 1 (≈ 0.319 µM) | 64 (≈ 20.4 µM) | 1.2 (≈ 0.383 µM) | 200 (≈ 63.8 µM) | 21 (≈ 6.7 µM) | – | – | – | – | –
CN[C@H](CC(C)C)C(=O)N[C@H]1C(=O)N[C@@H](CC(N)=O)C(=O)N[C@H]2C(=O)N[C@H]3C(=O)N[C@H](C(=O)N[C@H](C(=O)O)c4cc(O)cc(O)c4-c4cc3ccc4O)[C@H](O)c3ccc(c(Cl)c3)Oc3cc2cc(c3O[C@@H]2O[C@H](CO)[C@@H](O)[C@H](O)[C@H]2O[C@H]2C[C@](C)(NCc3c4oc5c(CN[C@@]6(C)C[C@H](O[C@H]7[C@H](Oc8c9cc%10cc8Oc8ccc(cc8Cl)[C@@H](O)[C@@H](NC(=O)[C@@H](CC(C)C)NC)C(=O)N[C@@H](CC(N)=O)C(=O)N[C@H]%10C(=O)N[C@H]8C(=O)N[C@H](C(=O)N[C@H](C(=O)O)c%10cc(O)cc(O)c%10-c%10cc8ccc%10O)[C@H](O)c8ccc(c(Cl)c8)O9)O[C@H](CO)[C@@H](O)[C@@H]7O)O[C@@H](C)[C@H]6O)cccc5nc-4cc(N)c3=O)[C@H](O)[C@H](C)O2)Oc2ccc(cc2Cl)[C@H]1O | 2 (≈ 0.638 µM) | 8 (≈ 2.55 µM) | 1 (≈ 0.319 µM) | 98 (≈ 31.3 µM) | 2.2 (≈ 0.702 µM) | 700 (≈ 223 µM) | 31 (≈ 9.89 µM) | – | – | – | – | –
CN[C@H](CC(C)C)C(=O)N[C@H]1C(=O)N[C@@H](CC(N)=O)C(=O)N[C@H]2C(=O)N[C@H]3C(=O)N[C@H](C(=O)N[C@H](C(=O)O)c4cc(O)cc(O)c4-c4cc3ccc4O)[C@H](O)c3ccc(c(Cl)c3)Oc3cc2cc(c3O[C@@H]2O[C@H](CO)[C@@H](O)[C@H](O)[C@H]2O[C@H]2C[C@](C)(NCc3cccc(NC(=O)c4ccc(C)c5oc6c(C)c(=O)c(N)c(C(=O)Nc7cccc(CN[C@@]8(C)C[C@H](O[C@H]9[C@H](Oc%10c%11cc%12cc%10Oc%10ccc(cc%10Cl)[C@@H](O)[C@@H](N)C(=O)N[C@@H](CC(N)=O)C(=O)N[C@H]%12C(=O)N[C@H]%10C(=O)N[C@H](C(=O)N[C@H](C(=O)O)c%12cc(O)cc(O)c%12-c%12cc%10ccc%12O)[C@H](O)c%10ccc(c(Cl)c%10)O%11)O[C@H](CO)[C@@H](O)[C@@H]9O)O[C@@H](C)[C@H]8O)c7)c-6nc45)c3)[C@H](O)[C@H](C)O2)Oc2ccc(cc2Cl)[C@H]1O | 1 (≈ 0.305 µM) | 8 (≈ 2.44 µM) | 2 (≈ 0.611 µM) | 74 (≈ 22.6 µM) | 11 (≈ 3.36 µM) | 300 (≈ 91.6 µM) | 61 (≈ 18.6 µM) | inactive | inactive | inactive | inactive | inactive
CN[C@H](CC(C)C)C(=O)N[C@H]1C(=O)N[C@@H](CC(N)=O)C(=O)N[C@H]2C(=O)N[C@H]3C(=O)N[C@H](C(=O)N[C@H](C(=O)NCc4cccc(NC(=O)c5c6nc7c(C(=O)Nc8cccc(CNC(=O)[C@H]9NC(=O)[C@H]%10NC(=O)[C@H](NC(=O)[C@@H]%11NC(=O)[C@H](CC(N)=O)NC(=O)[C@H](NC(=O)[C@@H](CC(C)C)NC)[C@H](O)c%12ccc(c(Cl)c%12)Oc%12cc%11cc(c%12O[C@@H]%11O[C@H](CO)[C@@H](O)[C@H](O)[C@H]%11O[C@H]%11C[C@](C)(N)[C@H](O)[C@H](C)O%11)Oc%11ccc(cc%11Cl)[C@H]%10O)c%10ccc(O)c(c%10)-c%10c(O)cc(O)cc%109)c8)ccc(C)c7oc-6c(C)c(=O)c5N)c4)c4cc(O)cc(O)c4-c4cc3ccc4O)[C@H](O)c3ccc(c(Cl)c3)Oc3cc2cc(c3O[C@@H]2O[C@H](CO)[C@@H](O)[C@H](O)[C@H]2O[C@H]2C[C@](C)(N)[C@H](O)[C@H](C)O2)Oc2ccc(cc2Cl)[C@H]1O | 8 (≈ 2.35 µM) | 16 (≈ 4.71 µM) | 16 (≈ 4.71 µM) | – | – | – | – | inactive | inactive | inactive | inactive | inactive
CN[C@H](CC(C)C)C(=O)N[C@H]1C(=O)N[C@@H](CC(N)=O)C(=O)N[C@H]2C(=O)N[C@H]3C(=O)N[C@H](C(=O)N[C@H](C(=O)O)c4cc(O)cc(O)c4-c4cc3ccc4O)[C@H](O)c3ccc(c(Cl)c3)Oc3cc2cc(c3O[C@@H]2O[C@H](CO)[C@@H](O)[C@H](O)[C@H]2O[C@H]2C[C@](C)(N)[C@H](O)[C@H](C)O2)Oc2ccc(cc2Cl)[C@H]1O | – | – | – | – | – | – | – | inactive | inactive | inactive | inactive | inactive
Cc1c2oc3c(C)ccc(C(=O)Nc4cccc(CN[C@@]5(C)C[C@H](O[C@H]6[C@H](Oc7c8cc9cc7Oc7ccc(cc7Cl)[C@@H](O)[C@@H](N)C(=O)N[C@@H](CC(N)=O)C(=O)N[C@H]9C(=O)N[C@H]7C(=O)N[C@H](C(=O)N[C@H](C(=O)O)c9cc(O)cc(O)c9-c9cc7ccc9O)[C@H](O)c7ccc(c(Cl)c7)O8)O[C@H](CO)[C@@H](O)[C@@H]6O)O[C@@H](C)[C@H]5O)c4)c3nc-2c(C(=O)Nc2cccc(CN[C@@]3(C)C[C@H](O[C@H]4[C@H](Oc5c6cc7cc5Oc5ccc(cc5Cl)[C@@H](O)[C@@H](N)C(=O)N[C@@H](CC(N)=O)C(=O)N[C@H]7C(=O)N[C@H]5C(=O)N[C@H](C(=O)N[C@H](C(=O)O)c7cc(O)cc(O)c7-c7cc5ccc7O)[C@H](O)c5ccc(c(Cl)c5)O6)O[C@H](CO)[C@@H](O)[C@@H]4O)O[C@@H](C)[C@H]3O)c2)c(N)c1=O | 4 (≈ 1.27 µM) | > 64 | 32 (≈ 10.2 µM) | 460 (≈ 146 µM) | 20 (≈ 6.36 µM) | 530 (≈ 168 µM) | 100 (≈ 31.8 µM) | – | – | – | – | –
